# Source: patent US20170119806A1, “[…] LACTONE DERIVATIVES AND METHODS OF MAKING AND USING THEREOF” (OHIO STATE INNOVATION FOUNDATION, priority 2014, published 2017)
# “Also recorded” adds a separate entry of the source.
# What was measured:
# [1] = test system: purified primary NK cells or NKL cells; assay: Real-time RT-PCR of mRNA in NK cells; type: cell-based, human; conditions: 10 μM PL-C, 12 h
# Method: (A) Chemical structure of PL-C (phyllanthusmin C, 4), (9) Healthy donor PBMCs (left panel) or enriched NK cells (right panel) were treated with DMSO vehicle control or 10 μM PL-C for 18 h in the presence of […] (10 ng/mL) or IL-15 (100 ng/mL). The cells were harvested and analyzed by intracellular flow cytometry to determine the frequency of IFN-γ^+ cells in CD56^+CD3^− NK cells (n=8 for PBMC and n=5 for enriched NK). (C) Highly purified (≧99.5%) human primary NK cells were treated with 10 μM PL-C for 18 h to determine the levels of IFN-γ secretion by ELISA. IFN-γ secretion from treatment with PL-C alone (left panel) or in combination with IL-12 (10 ng/mL, middle panel) or IL-15 (100 ng/mL, right panel) is shown. (D) Cells were treated as described in (C) and harvested at 12 h, IFNG mRNA expression was assessed by real-time RT-PCR, and the relative IFNG mRNA expression of each treatment was normalized to untreated vehicle control in the same donor. Data are shown as mean±SEM (n=6 in each treatment; error bars represent SEM). *p<0.05, **p<0.01, which denote statistical comparison between the two marked treatment groups (B-D). (E) Highly purified (≧99,5%) primary human NK cells were treated with 10 μM. PL-C in combination with various concentrations of IL-12 (10, 1, and 0.1 ng/mL) or IL-15 (100, 10, and 1 ng/mL) for 24 h to determine the levels of IFN-γ secretion. Representative data from one of three donors with the similar data are shown. *p<0.05, **p<0.01, which denote statistical comparison between the two marked treatment groups and are calculated from data of all tested donors. Error bars represent SD. […]
# (A) Human […] were treated with DMSO vehicle control or 10 μM PL-C for 18 hours in the presence of IL-12 (10 ng/mL) or IL-15 (100 ng/mL), as described in FIG. 37C. […] (B) Purified primary NK cells were treated with IL-12 (10 ng/mL) or IL-15 (100 ng/mL) with or without 10 μM PL-C for 8 hours and were sequentially co-cultured with […] labeled ARH-77 cells at various effector/target cell ratios for additional 4 hours. ^51Cr release was measured by a TopCount counter. […]
# CD4+ or CD8+ T cells = assay: T cell IFN-γ production (intracellular flow cytometry in PBMCs); type: cell-based, human; conditions: 10 μM PL-C, 18 h, with IL-12 or IL-15; listed as PL-C
# Method: (A) Human […] were treated with DMSO vehicle control or 10 μM PL-C for 18 hours in the presence of IL-12 (10 ng/mL) or IL-15 (100 ng/mL), as described in FIG. 37C. The cells were harvested for intracellular flow cytometry to determine the frequency of IFN-γ^+ cells in CD56^−CD3^+[…] or CD56^−CD3^+CD8^+T. Representative data from 1 out of 5 donors are shown. (B) Purified primary NK cells were treated with IL-12 (10 ng/mL) or IL-15 (100 ng/mL) with or without 10 μM PL-C for 8 hours and were sequentially co-cultured with […] labeled ARH-77 cells at various effector/target cell ratios for additional 4 hours. ^51Cr release was measured by a TopCount counter. Data shown are the means of 3 donors. […] Error bars represent S.D. (C) Purified primary NK cells were treated with 10 μM PL-C in the presence of IL-12 (10 ng/mL) (top) or IL-15 (100 ng/mL) (bottom) for 12 hours, and cell pellets were harvested for detecting granzyme A (GZMA), granzyme B (GZMB), perforin (PRF1) and Fas (Fasl) mRNA expression level by real-time RT-PCR. Data shown are the means of 6 donors. p>0.05, vehicle control versus PL-C in all panels. Error bars represent S.D.
# Intracellular flow cytometry. […] Data were acquired using an LSRII (BD Biosciences) flow cytometer and analyzed using FlowJo software (Tree Star, Ashland, Oreg.).
smiles,measurement,setting,value
"COc1cc2c(OC3OCC(O)C(O)C3O)c3c(c(-c4ccc5c(c4)OCO5)c2cc1OC)C(=O)OC3 (stereo not shown) [Compound 4, Phyllanthusmin C]",IFNG mRNA expression in NK cells,[1]; alone or with IL-12 or IL-15,induced IFN-γ gene (IFNG) expression at the transcriptional level
same,mRNA expression of IL-12R and IL-15R chains,[1]; cotreated with IL-12,"downregulated mRNA expression of IL-12Rβ1, IL-12Rβ2, and IL-15Rα"
same,"expression of cytotoxicity-associated genes (granzyme A, granzyme B, perforin, Fas ligand)",[1]; with IL-12 or IL-15,unaffected
same,T cell IFN-γ production,CD4+ or CD8+ T cells,"little or no; also recorded: negligibly activated T cell IFN-γ production; also recorded: few, if any"
